target: T1, Human synovial fluid phospholipase A2 (HSF-PLA2) (Homo sapiens, UniProt P14555); test: Human synovial fluid phospholipase A2 (HSF-PLA2) assay, [14C]-oleate-labeled autoclaved E. coli substrate; format: biochemical; details: purified HSF-PLA2; pH 7.0, 5 mM CaCl2; 5 min pre-incubation; 37° C., 30 minutes; mean
T1 construct: Human synovial fluid phospholipase A2 was purified approximately 5000 fold; from tissue; host or cells: human synovial fluid
T1 sequence (P14555 21-144): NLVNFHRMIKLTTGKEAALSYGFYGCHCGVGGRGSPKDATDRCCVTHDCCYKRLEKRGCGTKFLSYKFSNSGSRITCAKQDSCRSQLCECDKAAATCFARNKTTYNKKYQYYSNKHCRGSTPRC
Experimental: Human synovial fluid phospholipase A2 was purified approximately 5000 fold following the procedures of Franson et al., Lung 160, 275-284 (1982) and Vishwanath et al., Inflammation 12(6), 549-56 (1988). Following purification the enzyme activity was measured by a modified methodology using [^14 C]-oleate-labeled, autoclaved E. coli as the substrate as also shown in the above noted references. The assay was performed in a final volume of 100 μl containing 50 mM HEPES (pH 7.0), 150 mM NaCl, 5mM CaCl2, 7 n mole [^14 C]-oleate-labeled E. coli phospholipid and with or without the compound from one of the examples herein undergoing an assay. The compound or control vehicle was pre-incubated with the PLA2 for 5 minutes followed by addition of the E. coli substrate to initiate the reaction. The reaction was maintained at 37° C. for 30 minutes and then terminated by the addition of 2 ml tetrahydrofuran (THF). The reaction product, [^14 C]-oleic acid, was extracted using a 1 ml Bond Elut-NH2 Solid phase extraction column. The IC50 value for the compound (mean -S.E.) is given in the following Table I and represents the concentration of the indicated compound required to inhibit 50% of the PLA2 activity.

First: CCCCCCCCCCCCCC#CC(=O)Cc1cccc(C(=O)OC)c1 [Example 5, methyl 3-(2-oxo-3-heptadecynyl) benzoate]
Second: CCCCCCCCCCCCCC#CC(=O)Cc1ccc(C(=O)OC)cc1 [Example 14, methyl 4-(2-oxo-3heptadecynyl)benzoate]
The IC50 of the first is 2.7-fold higher: 6 µM for the first, 2.2 µM for the second. The second is the more potent here.

Going from `COC(=O)c1cccc(CC(=O)C#CCCCCCCCCCOc2ccccc2)c1` [Example 7, methyl 3-(2-oxo-13-phenoxy-3-tridecynyl)benzoate] to `COCCCCCCCCCC#CC(=O)Cc1cccc(C(=O)OC)c1` [Example 9, methyl 3-(2-oxo-13-methoxy-3-tridecynyl)benzoate], the IC50 rises from 2.75 µM to 20.6 µM (7.5-fold).

In the case of `CCCCCCCCCCCCCC#CC(=O)Cc1ccccc1C(=O)OC` [Example 11, methyl 2-(2-oxo-3heptadecynyl)benzoate], the IC50 is reported as 17.4 µM.
